From patent US20230059009A1, “INHIBITORS OF LIN28 AND METHODS OF USE THEREOF” (The Regents of the University of California, priority 2019, published 2023)

Assays:
[1] = molecular target: T1, LIN28B/pre-let-7a-2 binding (Homo sapiens, UniProt Q6ZN17); assay: FRET assay, EGFP-tagged LIN28B and BHQ-1 labelled pre-let-7a-2; conditions: doses 1.25 uM-20 uM; compared with LN1632
T1 construct: made in house; host or cells: stably transduced HEK cells; used as diluted protein lysate, not purified
T1 sequence (Q6ZN17 1-250): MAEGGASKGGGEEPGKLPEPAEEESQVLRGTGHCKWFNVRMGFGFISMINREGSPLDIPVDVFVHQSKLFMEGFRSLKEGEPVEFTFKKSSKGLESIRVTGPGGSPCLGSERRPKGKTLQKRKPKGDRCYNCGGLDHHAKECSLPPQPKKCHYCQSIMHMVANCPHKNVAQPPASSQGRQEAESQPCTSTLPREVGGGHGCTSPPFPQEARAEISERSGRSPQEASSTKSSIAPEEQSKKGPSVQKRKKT
Protocol: As described herein, compounds of formula (I) and (II) show Lin28/let-7 inhibitory activity in FRET assays in vitro and in LSCs and LSC-like Kasumi-1 cells. FRET assay was performed as previously described (51).
In order to improve binding and inhibitory capacity of a compound to LIN28b, we predicted the binding mode of LN1632 to LIN28B. […] With this model in hand, we synthesized novel compounds with improved binding capacity to Lin28b (JGJ002-JGJ008, FIG. 8). Compounds were screened using a previously described FRET-assay with an EGFP-tagged LIN28B as donor and a BHQ-1 quencher labelled pre-let-7a-2 (pre-let-7a-2-BHQ1) as acceptor (51). Briefly, recombinant LIN28B-EGFP was harvested from stably transduced HEK cells and diluted with binding buffer (300 mM NaCl, 25 mM HEPES pH 7.2, 10 μM ZnCl2, 1% Odyssey Blocking Buffer, 0.05% Tween 20, 0.5 mM TCEP) in order to adjust ideal FRET-quenching signal intensity. Protein lysate and compounds (JGJ001-JGJ008) were pre-incubated in doses ranging from 1.25 uM-20 uM for 20 min in 100 uL diluted protein lysate. Subsequently pre-let-7a-2-BHQ1 was added to the mixture (at 6.25 nM) and EGFP-LIN28B donor emission was measured using a Tecan Spark Plate Reader ([…], excitation at 488 nm, emission read-out at […], 30 flashes/s). […] Increased endogenous let-7 miRNA levels can target a panoply of LCS and cancer stem cell hallmark genes thus inhibiting tumor growth.
(§1) To test the structure-activity relationship, 39 LN1632-related analogs (JGJ001-39) were synthesized and their potency and specificity to inhibit LIN28B-RNA binding activity and upregulate mature let-7 miRNA levels was measured. […] The dual luciferase reporter assay was performed as previously described (89).

[2] = test system: H1975; assay: Cell viability, MTT assay, H1975; format: cell-based; conditions: Homo sapiens, NCI-H1975, H1975 (Lung)
Protocol: (§2) To measure cell viability, cell titer glow (CTG, Promega CellTiter-Glo 2.0 Assay) and MTT assays (SigmaAldrich, Cell Proliferation Kit I) were performed. Briefly, cells were serum starved overnight prior to seeding in 96-well plates. Following 24 h incubation, cells were treated with increasing concentrations of JGJ compounds for 96 hr. At assay read-out, CellTiter-Glo reagent was added and luminescence was measured after 10-minutes incubation at room temperature. For the MTT assay, MTT labeling reagent was added and incubated for 4 h. Subsequently, medium was removed and 50 μL DMSO was added to solubilize the crystals, and absorbance was measured at 570 nm. Cell viability was calculated as (Sample-Background)/(Control-Background).

[3] = test system: A549; assay: Cell viability, MTT assay, A549; format: cell-based; conditions: Homo sapiens, A549 (Lung)
Protocol: as §2

[4] = Caco2 permeability; format: in vitro ADME; conditions: human, Caco-2, Conc. 5 uM
[5] = Microsomal stability, CD-1 Mouse; format: in vitro ADME; conditions: Conc. 5 uM
[6] = Microsomal stability, Human; format: in vitro ADME; conditions: Conc. 5 uM
[7] = molecular target: T2, CYP 1A2 (Homo sapiens, UniProt P05177); assay: CYP inhibition 1A2; format: in vitro ADME; design: unit not given here; conditions: Conc. 10 uM
T2 sequence (P05177 1-516): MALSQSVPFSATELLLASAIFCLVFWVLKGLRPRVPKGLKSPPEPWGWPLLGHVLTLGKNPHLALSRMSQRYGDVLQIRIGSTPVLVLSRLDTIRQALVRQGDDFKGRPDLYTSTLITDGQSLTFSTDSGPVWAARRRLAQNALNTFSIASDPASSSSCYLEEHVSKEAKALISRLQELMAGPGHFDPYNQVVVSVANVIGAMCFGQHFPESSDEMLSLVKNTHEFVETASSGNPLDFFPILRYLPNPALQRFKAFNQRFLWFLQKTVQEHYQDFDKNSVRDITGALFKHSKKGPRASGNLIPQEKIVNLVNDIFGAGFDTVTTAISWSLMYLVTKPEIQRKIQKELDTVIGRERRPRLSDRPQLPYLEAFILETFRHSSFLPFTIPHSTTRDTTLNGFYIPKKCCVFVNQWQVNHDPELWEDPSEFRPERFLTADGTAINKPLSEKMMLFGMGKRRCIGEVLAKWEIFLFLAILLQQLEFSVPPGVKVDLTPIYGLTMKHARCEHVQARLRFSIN

[8] = molecular target: T3, CYP 2B6 (Homo sapiens, UniProt P20813); assay: CYP inhibition 2B6; format: in vitro ADME; design: unit not given here; conditions: Conc. 10 uM
T3 sequence (P20813 1-491): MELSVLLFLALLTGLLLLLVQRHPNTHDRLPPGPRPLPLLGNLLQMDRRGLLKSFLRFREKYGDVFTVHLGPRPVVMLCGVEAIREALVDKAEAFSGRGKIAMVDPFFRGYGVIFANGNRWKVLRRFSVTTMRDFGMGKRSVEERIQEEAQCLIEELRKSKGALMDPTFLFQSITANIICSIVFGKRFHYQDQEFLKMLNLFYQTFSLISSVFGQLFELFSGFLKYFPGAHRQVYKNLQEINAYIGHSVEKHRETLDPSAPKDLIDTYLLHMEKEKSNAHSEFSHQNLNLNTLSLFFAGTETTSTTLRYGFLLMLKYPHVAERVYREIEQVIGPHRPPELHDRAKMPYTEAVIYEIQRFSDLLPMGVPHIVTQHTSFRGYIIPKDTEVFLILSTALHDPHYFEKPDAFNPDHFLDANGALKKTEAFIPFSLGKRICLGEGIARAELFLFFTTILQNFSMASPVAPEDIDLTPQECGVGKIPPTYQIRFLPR

[9] = molecular target: T4, CYP 2C8 (Homo sapiens, UniProt P10632); assay: CYP inhibition 2C8; format: in vitro ADME; design: unit not given here; conditions: Conc. 10 uM
T4 sequence (P10632 1-490): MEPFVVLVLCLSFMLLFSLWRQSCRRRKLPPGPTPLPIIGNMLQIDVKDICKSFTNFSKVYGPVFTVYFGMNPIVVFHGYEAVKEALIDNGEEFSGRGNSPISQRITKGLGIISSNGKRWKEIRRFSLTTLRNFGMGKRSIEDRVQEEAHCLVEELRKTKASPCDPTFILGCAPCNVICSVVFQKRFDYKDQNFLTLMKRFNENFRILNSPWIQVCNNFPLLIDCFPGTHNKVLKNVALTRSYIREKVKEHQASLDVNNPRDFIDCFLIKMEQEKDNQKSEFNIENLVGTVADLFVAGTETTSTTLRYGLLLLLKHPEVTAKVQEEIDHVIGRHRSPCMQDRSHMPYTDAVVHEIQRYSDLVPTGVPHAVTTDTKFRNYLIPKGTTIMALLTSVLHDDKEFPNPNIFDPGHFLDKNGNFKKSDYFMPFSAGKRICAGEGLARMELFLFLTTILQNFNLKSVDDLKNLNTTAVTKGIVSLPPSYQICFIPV

[10] = molecular target: CYP 2C9 (Homo sapiens, UniProt P11712); assay: CYP inhibition 2C9; format: in vitro ADME; design: unit not given here; conditions: Conc. 10 uM
[11] = molecular target: CYP 2C19 (Homo sapiens, UniProt P33261); assay: CYP inhibition 2C19; format: in vitro ADME; design: unit not given here; conditions: Conc. 10 uM
[12] = molecular target: CYP 2D6 (Homo sapiens, UniProt P10635); assay: CYP inhibition 2D6; format: in vitro ADME; design: unit not given here; conditions: Conc. 10 uM
[13] = test system: mature let-7 miRNAs; assay: Dual luciferase reporter assay of mature let-7 miRNAs in HepG2 cells; format: cell-based; conditions: 3-10 μM, compared with LN1632
Protocol: as §1

[14] = microsomes, read-out: Microsomal stability T½

CYP 2D6, sequence (P10635 whole entry): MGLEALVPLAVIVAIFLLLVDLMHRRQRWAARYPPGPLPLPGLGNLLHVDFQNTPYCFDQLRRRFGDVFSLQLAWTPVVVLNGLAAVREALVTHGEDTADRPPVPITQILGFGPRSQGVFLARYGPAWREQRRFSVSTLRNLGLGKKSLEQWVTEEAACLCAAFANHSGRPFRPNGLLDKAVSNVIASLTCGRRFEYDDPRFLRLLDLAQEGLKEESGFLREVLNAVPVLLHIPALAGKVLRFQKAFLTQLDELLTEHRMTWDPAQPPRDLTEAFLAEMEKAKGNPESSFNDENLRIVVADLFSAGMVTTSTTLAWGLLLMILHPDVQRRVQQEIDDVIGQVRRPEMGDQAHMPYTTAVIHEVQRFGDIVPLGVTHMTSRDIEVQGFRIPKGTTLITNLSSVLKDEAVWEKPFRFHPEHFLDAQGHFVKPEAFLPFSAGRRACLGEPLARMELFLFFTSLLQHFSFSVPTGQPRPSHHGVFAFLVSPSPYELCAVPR
CYP 2C19, sequence (P33261 whole entry): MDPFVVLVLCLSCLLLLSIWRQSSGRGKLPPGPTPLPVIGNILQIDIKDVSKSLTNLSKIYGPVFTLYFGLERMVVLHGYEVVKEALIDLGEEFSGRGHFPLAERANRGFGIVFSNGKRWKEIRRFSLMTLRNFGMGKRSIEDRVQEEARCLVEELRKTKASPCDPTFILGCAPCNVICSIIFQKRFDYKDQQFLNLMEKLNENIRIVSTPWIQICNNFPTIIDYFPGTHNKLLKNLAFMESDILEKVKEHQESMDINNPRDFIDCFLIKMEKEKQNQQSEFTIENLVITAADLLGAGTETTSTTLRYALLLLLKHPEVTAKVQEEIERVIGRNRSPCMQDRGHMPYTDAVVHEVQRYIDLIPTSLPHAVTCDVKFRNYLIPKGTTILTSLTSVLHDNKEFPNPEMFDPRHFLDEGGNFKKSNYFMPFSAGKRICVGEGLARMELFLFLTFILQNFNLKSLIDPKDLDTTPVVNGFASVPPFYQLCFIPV
CYP 2C9, sequence (P11712 whole entry): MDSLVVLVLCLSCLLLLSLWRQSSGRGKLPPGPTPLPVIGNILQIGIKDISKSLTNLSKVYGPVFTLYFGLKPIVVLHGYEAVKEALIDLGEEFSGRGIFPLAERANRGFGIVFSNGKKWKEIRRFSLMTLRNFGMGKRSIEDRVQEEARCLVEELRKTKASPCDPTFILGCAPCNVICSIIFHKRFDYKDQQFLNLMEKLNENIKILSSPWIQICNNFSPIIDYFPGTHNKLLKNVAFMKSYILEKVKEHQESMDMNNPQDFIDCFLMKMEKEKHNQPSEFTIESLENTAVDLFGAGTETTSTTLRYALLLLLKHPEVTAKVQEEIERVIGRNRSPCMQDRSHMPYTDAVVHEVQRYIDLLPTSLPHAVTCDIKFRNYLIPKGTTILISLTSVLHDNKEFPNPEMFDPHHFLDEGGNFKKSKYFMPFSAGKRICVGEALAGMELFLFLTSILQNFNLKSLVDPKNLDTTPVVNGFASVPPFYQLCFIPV

Compound: Nc1cccc(-c2ccc3ncc(-c4ccccc4)n3c2)c1 [JGJ032, 3-(3-Phenylimidazo[1,2-a]pyridin-6-yl)aniline]
- Inhibition of LIN28B binding to pre-let-7a (FRET signal) [1]: inhibit LIN28's RNA-binding capacity significantly more than compound LN1632

Compound: CC(=O)N(C)c1cccc(-c2ccc3ncc(C)n3n2)c1 [JGJ008, N-Methyl-N-(3-(3-methylimidazo[1,2-b]pyridazin-6-yl)phenyl)acetamide]
- Inhibition of LIN28B binding to pre-let-7a (FRET signal) [1]: greater inhibition of the LIN28B/pre-let-7a2 binding than the original compound LN1632

Compound: C=CC(=O)Nc1cc(Nc2nccc(-c3cn(C)c4ccccc34)n2)c(OC)cc1N(C)CCN(C)C [Osimertinib, reference compound]
- IC50 [2]: 21 µM
- IC50 [3]: 11 µM

Compound: Cc1cnc2ccc(-c3cccc([N+](=O)[O-])c3)nn12 [JGJ005, 3-Methyl-6-(3-nitrophenyl)imidazo[1,2-b]pyridazine]
- Inhibition of LIN28B binding to pre-let-7a (FRET signal) [1]: greater inhibition of the LIN28B/pre-let-7a2 binding than the original compound LN1632

Compound: CC(=O)Nc1cc(F)cc(-c2ccc3ncc(C)n3n2)c1 [JGJ026, N-(3-Fluoro-5-(3-methylimidazo[1,2-b]pyridazin-6-yl)phenyl)acetamide]
- Papp A→B at 5 uM [4]: 27.2 ×10⁻⁶ cm/s
- Papp B→A at 5 uM [4]: 25 ×10⁻⁶ cm/s
- efflux ratio at 5 uM [4]: 0.6
- recovery at 5 uM ([4]; read-out: Caco2 Mean A-B % Recovery): 84%
- Microsomal stability % Remaining at T30 [5]: T30 = 17%
- microsomal CLint at 5 uM ([5]; microsomes): 118 µL/min/mg
- half-life at 5 uM [5, 14]: 11.8 min
- Microsomal stability % Remaining at T30 [6]: T30 = 54.7%
- microsomal CLint at 5 uM ([6]; microsomes): 38.2 µL/min/mg
- half-life at 5 uM [6, 14]: 36.2 min
- CYP inhibition 1A2 [7]: 96.2
- CYP inhibition 2B6 [8]: 30.9
- CYP inhibition 2C8 [9]: 61.1
- CYP inhibition 2C9 [10]: 48.8
- CYP inhibition 2C19 [11]: 35
- CYP inhibition 2D6 [12]: 67.8
- Inhibition of LIN28B binding to pre-let-7a (FRET signal) [1]: inhibit LIN28's RNA-binding capacity significantly more than compound LN1632
- Upregulation of mature let-7 miRNAs [13]: upregulated mature let-7 miRNAs at significantly lower doses than LN1632
